This assay concerns SK-OV3 cells. The assay can be described thus: preclinical efficacy study on the human ovarian tumor model in mice (tumor volume). As to conditions: via tail vein once every three days, 4 doses, measured every third day through the 22nd day. The format is in vivo.

Experimental: A preclinical efficacy study was conducted on the human ovarian tumor model in mice. The tumor cells used were SK-OV3 cells purchased from ATCC. The mice were 4-6 week old Athymic (nu+/nu+) female mice. The IRL-1620 was intravenously-infused slowly (over 30 seconds).
A solid tumor was induced in each animal using 3 million viable SK-OV3 cells suspended in 200 µl of PBS per animal. After 10 days, when established tumors of 100 mm^3 in diameter were detectable, the mice randomly were divided into six groups of 6 animals per group with each group receiving different treatments. The treatment regimens were administered via the tail vein every third day for a total of 4 doses. […]
The effect of these treatments on the tumor size was measured using a digital caliper for a total of 12 days after drug administration. The mice were monitored and weighed on every third day. […] Progression, stasis, partial regression or complete regression of tumor growth were measured by tumor load measurements with calipers and was calculated using the following formula: (3.14/6) x larger diameter x smaller diameter.

As for `N.N.[Cl][Pt][Cl]` [saline/cisplatin, cisplatin], the tumor volume result (Figure 1, cisplatin 2.5 mg/kg with saline or IRL-1620 3 nmol/kg) is recorded as “significant reduction in tumor volume”. `O=P1(N(CCCl)CCCl)NCCCO1` (centres unmarked) [saline/cyclophosphamide, cyclophosphamide]: under “Figure 3, cyclophosphamide 75 mg/kg with saline or IRL-1620 3 nmol/kg”, the tumor volume entry was “significant reduction in tumor volume”.

The record behind these values is patent EP2144607B1, “COMPOSITIONS FOR CONTRIBUTING TO THE TREATMENT OF CANCERS” (Spectrum Pharmaceuticals, Inc., priority 2007, dated 2008).
